Test results taken from paper PMC12051620, “Molecular basis underlying the specificity of an antagonist AA92593 for mammalian melanopsins” (The Journal of Biological Chemistry, 2025).

Assay: dissolution in HBSS assay solution
Assay type: physicochemical
Details: HBSS solution pH 7.4, 0.5% DMSO
Procedure: The transfected COS-1 cells were incubated at 37 °C, 5% CO2 for 2 days, and the medium was aspirated and exchanged with 50 μl of HBSS (145 mM NaCl, 10 mM D-glucose, 5 mM KCl, 1 mM MgCl2, 1.7 mM CaCl2, 1.5 mM NaHCO3, 10 mM Hepes, pH 7.4), containing 33.3, 20, 10, 2, 0.2, 0.02, 0.002, or 0 μM AA92593, 0.5% dimetyl sulfoxide (DMSO), and 4% (vol/vol) GloSensor cAMP reagent stock solution. Under our experimental conditions, >50 μM AA92593 was not fully dissolved in the HBSS solution, and we set maximal concentration of AA92593 (Glixx Laboratories) at 33.3 μM (final concentration of 16.7 μM, see below). Then, the cells were incubated at room temperature for 1 h, and luminescence changes were monitored. After incubation of the cells with AA92593, luminescence measurement was interrupted, the plate was ejected, and the cells were added with 50 μl of HBSS containing 0.2 μM 9-cis-retinal. […] Luminescence was measured using GM-2000 or GM-3510 microplate reader (Promega). Luminescence level of each well was measured every 30 s with integration time of 0.6 to 0.9 s. To illuminate opsins, luminescence measurement was interrupted, the plate was ejected, and the plate was illuminated by white light with CN-160 LED video light (light intensity, ∼9 mW/cm^2) (NEEWER). […] After illumination, luminescence measurement was resumed. […]

COc1ccc(S(=O)(=O)N2CCCCC2)cc1C [AA92593]
concentration at which AA92593 was not fully dissolved: > 50 µM
